Read-outs that look alike come from different tables or passages of the source.
Experiments:
HCT116 cells = assay: MTT assay; format: cell-based; settings: Homo sapiens, HCT116 cells, 72 hours
Method in brief: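 Read-out: MTT (0.5 mg/ml final, 4 h) after solubilization in 50% DMF/20% SDS, pH 4.7, with OD translated into cell number via the line's growth curve. Compound treatment lasted 72 h at 37 °C in 5% CO2, starting a day after plating.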

[1] = molecular target: T1, cloned recombinant human HDAC-1 (Homo sapiens, UniProt Q13547); assay: Human HDAC-1 enzyme inhibition, Assay 1 ([3H]-acetylated histone substrate, scintillation counting); format: biochemical
T1 construct: made in house; host or cells: Baculovirus insect cell expression system
Method in brief: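 Activity read as [3H]-acetic acid liberated from labeled substrate, ethyl acetate-extracted and scintillation-counted. Compounds preincubated 30 min at 4° C. with baculovirus-expressed, purified human HDAC-1. Dose-response curves give IC50 as concentration producing fifty percent of maximal inhibition.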

[2] = tested on: acetylated histone H-4 in T24 human bladder cancer cells; assay: Histone H4 acetylation in whole cells by immunoblots; format: cell-based; settings: 16 h
Method in brief: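 Acetylated histone H4 was quantified by densitometry of ECL-developed immunoblots, probed with a polyclonal antibody, of […] total histone from T24 cultures exposed 16 h to HDAC inhibitors.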

[3] = Table 5F, read-out: Human HDAC-1 IC50
[4] = T-24, Table 5F, read-out: H4 Ac (T24) EC50
[5] = Table 5a, read-out: Human HDAC-1 IC50
[6] = T-24, Table 5a, read-out: H4Ac (T24) EC50
[7] = Table 5E, read-out: Human HDAC-1 IC50
[8] = T-24, Table 5E, read-out: H4 Ac (T24) EC50

T1 sequence (Q13547 whole entry): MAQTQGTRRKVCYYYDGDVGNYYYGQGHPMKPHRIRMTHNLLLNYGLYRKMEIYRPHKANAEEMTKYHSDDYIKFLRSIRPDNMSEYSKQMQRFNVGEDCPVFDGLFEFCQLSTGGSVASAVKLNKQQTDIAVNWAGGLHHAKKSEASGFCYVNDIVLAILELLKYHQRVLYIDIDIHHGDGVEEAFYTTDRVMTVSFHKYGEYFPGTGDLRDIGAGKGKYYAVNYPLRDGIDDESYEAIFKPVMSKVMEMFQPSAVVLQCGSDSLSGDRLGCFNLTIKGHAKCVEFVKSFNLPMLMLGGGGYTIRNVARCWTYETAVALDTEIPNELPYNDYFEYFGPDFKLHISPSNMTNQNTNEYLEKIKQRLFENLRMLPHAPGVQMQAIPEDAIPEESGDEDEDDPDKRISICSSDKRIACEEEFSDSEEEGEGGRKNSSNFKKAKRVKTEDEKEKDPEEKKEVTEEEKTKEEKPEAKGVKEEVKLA

| Structure (SMILES) | IC50 (HCT116 cells; HCT-116, 72 h, Table 5F) [nM] | IC50 [1, 3] [nM] | EC50 [2, 4] [nM] | other results |
| --- | --- | --- | --- | --- |
| COc1ccc(C2C=CC(c3ccc(C(=O)Nc4ccccc4N)cc3)O2)cc1 (stereo not drawn) [Cpd 367, N-(2-Amino-phenyl)-4-[5-(4-methoxy-phenyl)-2,5-dihydro-furan-2-yl]-benzamide] | 2000 | 6000 | 5000 |  |
| COc1ccc(CCNc2nc(NCc3ccc(C(=O)Nc4ccccc4N)cc3)nc(NC3CC3)n2)cc1 [Cpd 476] |  |  |  | IC50 (HCT116 cells; HCT-116, 72 h, Table 5b): 1000 nM; IC50 ([1]; Table 5b, read-out: Human HDAC-1 IC50): 2000 nM; EC50 ([2]; T-24, Table 5b, read-out: H4Ac (T24) EC50): 2000 nM |
| COc1cc(N(CCN2CCOCC2)Cc2ccc(/C=C/C(=O)Nc3ccccc3N)cc2)cc(OC)c1OC [Cpd 523, N-(2-Amino-phenyl)-3-(4-{[(2-morpholin-4-yl-ethyl)-(3,4,5-trimethoxy-phenyl)-amino]-methyl}-phenyl)-acrylamide] |  |  |  | IC50 (HCT116 cells; HCT-116, Table 5d): 6000 nM; IC50 ([1]; Table 5d, read-out: HDAC-1 IC50): 8000 nM; EC50 ([2]; T-24, Table 5d, read-out: H4Ac(T24) EC50): 10000 nM |
| Nc1ccccc1NC(=O)c1ccc(-c2ccc(CNCc3ccccn3)s2)cc1 [Cpd 466] | 2000 | 3000 | 1000 |  |
| Nc1nc(NCc2ccc(/C=C/C(=O)Nc3ccccc3N)cc2)nc(NC2Cc3ccccc3C2)n1 [Cpd 83] |  |  |  | IC50 (HCT116 cells; HCT-116, 72 h, Table 5a): 5000 nM; IC50 [1, 5]: 3000 nM; EC50 [2, 6]: 5000 nM |
| Nc1ccccc1NC(=O)c1ccc(NCc2ccc(OC(F)(F)F)cc2)cc1 [Cpd 426, N-(2-Amino-phenyl)-4-(4-trifluoromethoxy-benzylamino)-benzamide] | 1000 | 2000 | 10000 |  |
| Nc1ccccc1NC(=O)c1ccc(CC2COc3ccccc3C2)cc1 (stereo not drawn) [compound 265, N-(2-Amino-phenyl)-4-chroman-3-ylmethyl-benzamide] | 2000 | 2000 | 3000 |  |
| Nc1ccccc1NC(=O)c1ccc(CNc2cccc(F)c2)cc1 [Cpd 417, N-(2-Amino-phenyl)-4-[(3-fluoro-phenylamino)-methyl]-benzamide] | 1000 | 3000 | 1000 |  |
| Nc1ccccc1NC(=O)c1ccc(CSc2nc3ccc(NCCN4CCOCC4)cc3s2)cc1 [Cpd 128, N-(2-Amino-phenyl)-4-[6-(2-morpholin-4-yl-ethylamino)-benzothiazol-2-ylsulfanylmethyl]-benzamide] |  |  |  | IC50 (HCT116 cells; HCT-116, 72 h, Table 5E): 300 nM; IC50 [1, 7]: 1000 nM; EC50 [2, 8]: 5000 nM |
| COc1ccc(CNC2(C#Cc3ccc(C(=O)Nc4ccccc4N)cc3)CCCCC2)cc1 [Cpd 192] | 1000 | 2000 | 3000 |  |
| COc1ccc(CNc2ccc(C(=O)Nc3ccccc3N)cc2)cc1 [Cpd 414, N-(2-Amino-phenyl)-4-(4-methoxy-benzylamino)-benzamide] | 1000 | 3000 | 1000 |  |
| Nc1ccccc1NC(=O)c1ccc(-c2ncc[nH]2)cc1 [Cpd 249] | 1000 | 4000 | 2000 |  |
| Nc1ccccc1NC(=O)c1ccc(CNc2ccc(OC(F)(F)F)cc2)cc1 [Cpd 422, N-(2-Amino-phenyl)-4-[(4-trifluoromethoxy-phenylamino)-methyl]-benzamide] | 900 | < 50 | 5000 |  |
| COc1cc(Nc2nc(N)nc(NCc3ccc(C(=O)Nc4ccccc4N)cc3)n2)cc(OC)c1OC [Cpd 21, N-(2-Amino-phenyl)-4-{[4-amino-6-(3,4,5-trimethoxy-phenylamino)-[1,3,5]triazin-2-ylamino]-methyl}-benzamide] |  |  |  | IC50 (HCT116 cells; HCT-116, 72 h, Table 5a): 4000 nM; IC50 [1, 5]: 4000 nM; EC50 [2, 6]: 25000 nM |
| Nc1ccccc1NC(=O)c1ccc(CSc2nc3ccc(NCc4cccnc4)cc3s2)cc1 [Cpd 325, N-(2-Amino-phenyl)-4-{6-[(pyridin-3-ylmethyl)-amino]-benzothiazol-2-ylsulfanylmethyl}-benzamide] | 1000 | 300 | 2000 |  |
| COc1cc(OC)cc(OCc2ccc(C(=O)Nc3ccccc3N)cc2)c1 [Cpd 395, N-(2-Amino-phenyl)-4-(3,5-dimethoxy-phenoxymethyl)-benzamide] | 1000 | 2000 | 5000 |  |
| Nc1ccccc1NC(=O)c1ccc(NCc2ccc(F)cc2)cc1 [Cpd 413, N-(2-Amino-phenyl)-4-(4-fluoro-benzylamino)-benzamide] | 2000 | 2000 | 3000 |  |
| COc1ccc(CSc2ccc(C(=O)Nc3ccccc3N)cn2)cc1 [Cpd 171] |  |  |  | IC50 (HCT116 cells; HCT-116, 72 h, Table 5E): 3000 nM; IC50 [1, 7]: 8000 nM; EC50 [2, 8]: 25000 nM |

Further lines, with some results ahead:

| IC50 (HCT116 cells; HCT-116, 72 h, Table 5F) [nM] | IC50 [1, 3] [nM] | EC50 [2, 4] [nM] | Structure (SMILES) | other results |
| --- | --- | --- | --- | --- |
| 200 | 1000 | 1000 | COc1ccc(NCc2ccc(C(=O)Nc3ccccc3N)cc2)c(C)c1 [Cpd 403, N-(2-Amino-phenyl)-4-[(4-methoxy-2-methyl-phenylamino)-methyl]-benzamide] |  |
| 600 | 5000 | 1000 | CSc1cccc(NCc2ccc(C(=O)Nc3ccccc3N)cc2)c1 [Cpd 438, N-(2-Amino-phenyl)-4-[(3-methylsulfanyl-phenylamino)-methyl]-benzamide] |  |
| 600 | 3000 | 1000 | Nc1ccccc1NC(=O)c1ccc(NCc2cccc(F)c2)cc1 [Cpd 416, N-(2-Amino-phenyl)-4-(3-fluoro-benzylamino)-benzamide] |  |
| 600 | 3000 | 1000 | Cc1nc2ccccc2c(=O)n1Cc1ccc(C(=O)Nc2ccccc2N)cc1 [Cpd 337, N-(2-Amino-phenyl)-4-(2-methyl-4-oxo-4H-quinazolin-3-ylmethyl)-benzamide] |  |
| 800 | 5000 | 2000 | COc1ccc(NCc2ccc3oc(C(=O)Nc4ccccc4N)cc3c2)cc1OC [compound 587, 5-[(3,4-Dimethoxy-phenylamino)-methyl]-benzofuran-2-carboxylic acid (2-amino-phenyl)-amide] |  |
| 500 | 2000 | 1000 | CC(=O)Nc1sc(Cc2ccc(C(=O)Nc3ccccc3N)cc2)cc1C(N)=O [Cpd 579, 2-Acetylamino-5-[4-(2-amino-phenyl-carbamoyl)-benzyl]-thiophene-3-carboxamide] |  |
| 400 | 500 | 1000 | CCn1c(=O)n(Cc2ccc(C(=O)Nc3ccccc3N)cc2)c(=O)c2ccccc21 [Cpd 181] |  |
| 400 | 700 | 2000 | Nc1ccccc1NC(=O)c1ccc(CNc2nc3cc(Br)ccc3s2)cc1 [Cpd 322, N-(2-Amino-phenyl)-4-[(5-bromo-benzothiazol-2-ylamino)-methyl]-benzamide] |  |
| 300 | 3000 | 2000 | Nc1ccccc1NC(=O)c1ccc(CNc2ccc3oc(SCc4cccnc4)nc3c2)cc1 [Cpd 452, N-(2-Amino-phenyl)-4-{[2-(pyridin-3-ylmethylsulfanyl)-benzooxazol-5-ylamino]-methyl}-benzamide] |  |
| 200 | 2000 | 1000 | COc1ccc(N(Cc2ccc(C(=O)Nc3ccccc3N)cc2)C(=O)Nc2ccc(Cl)cc2)cc1OC [Cpd 372, N-(2-Amino-phenyl)-4-[3-(4-chloro-phenyl)-1-(3,4-dimethoxy-phenyl)-ureidomethyl]-benzamide] |  |
| 600 | 4000 | 1000 | COc1ccc(NCc2ccc(C(=O)Nc3ccccc3N)cc2)cn1 [Cpd 421] |  |
| 300 | 4000 | 1000 | Cn1c2ccc(NCc3ccc(C(=O)Nc4ccccc4N)cc3)cc2c2nc3ccccc3nc21 [Cpd 462] |  |
| 300 | 6000 | 2000 | CC(=O)Nc1ccc(NCc2ccc(C(=O)Nc3ccccc3N)cc2)cc1 [Cpd 401, 4-[(4-Acetylamino-phenylamino)methyl]-N-(2-amino-phenyl)-benzamide] |  |
| 200 | 2000 | 1000 | COc1ccc2[nH]c(SCc3ccc(C(=O)Nc4cscc4N)cc3)nc2c1 [Cpd 575, N-(4-Amino-thiophen-3-yl)-4-(5-methoxy-1H-benzoimidazol-2-ylsulfanyl-methyl)-benzamide] |  |
| 600 | 3000 | 1000 | Nc1ccccc1NC(=O)c1ccc(CNc2nccc(N3CCOCC3)n2)cc1 [Cpd 435, N-(2-Amino-phenyl)-4-[(4-morpholin-4-yl-pyrimidin-2-ylamino)-methyl]-benzamide] |  |
| 200 | 4000 | 3000 | Nc1ccccc1NC(=O)c1ccc(CNc2ccc3[nH]c(SCc4cccnc4)nc3c2)cc1 [Cpd 451] |  |
| 700 | 700 | 1000 | Nc1ccccc1NC(=O)c1ccc(CNc2ccc3c(c2)OCO3)cc1 [Cpd 428, N-(2-Amino-phenyl)-4-(benzo[1,3]dioxol-5-ylaminomethyl)-benzamide] |  |
| 300 | 1000 | 1000 | Nc1ccccc1NC(=O)c1ccc(Cn2c(=O)oc3ccccc3c2=O)cc1 [Cpd 179] |  |

From patent publication US7868204B2, “Inhibitors of histone deacetylase” (MethylGene Inc., priority 2001, dated 2011)
